Literature values as cited in patent US9314478B2, “Method of making an anhydrous, fat soluble, chewable drug delivery formulation” (Argenta Manufacturing Limited, priority 2013, dated 2016).

Aqueous solubility	Compound
Poor	Cc1cnc(NC(=O)C2=C(O)c3ccccc3S(=O)(=O)N2C)s1 [Meloxicam]
Poor	CCCOc1ccc2nc(NC(=O)OC)[nH]c2c1 [Oxibendazole]
Soluble	O=C(C1CCCCC1)N1CC(=O)N2CCc3ccccc3C2C1 (stereo not shown) [Praziquantel]

Second part, the compound before the results:

Compound	Aqueous solubility
CC(C(=O)O)c1ccc2c(c1)[nH]c1ccc(Cl)cc12 (stereo not shown) [Carprofen]	Poor
CN1CCCN=C1/C=C/c1cccs1 [Pyrantel]	Poor
Milbemycin oxime	Poor
Spinosad	Soluble
